Test system: Leishmania amazonensis promastigotes
Assay: Leishmanicidal activity against promastigotes (alamarBlue assay; screening at 10 µM and IC50)
Format: cell-based
Settings: first screening, 10 µM, 72 h
Experimental: For the experiments, promastigotes of Leishmania amazonensis strain (MHOM/BR/77/LTB0016) were used; they were maintained in RPMI 1640 medium (Gibco, Massachusetts, USA) at 26 °C. […] Subsequently, the plates were analyzed on an EnSpire multimode plate reader (PerkinElmer, MA, USA) to measure their fluorescence after 72 h. […] To this end, serial dilutions were performed in 96 well plates, and incubated with the parasites for 72 h after adding alamarBlue®. Next, the plates were analyzed on the EnSpire plate reader and the IC50 values were calculated by using SigmaPlot 14.0 (Systat Software Inc., Chicago, IL, USA). Each concentration was tested in duplicate and in three independent experiments for all the compounds.

SMILES | % of inhibition at 10 µM (against L. amazonensis promastigotes) [%]
CCC(Sc1nc2ccccc2o1)C(=O)Nc1nccs1 (stereo not shown) [MMV676383] | 83
CN(C)c1cc(NC(=O)Nc2ccccc2)c2ccccc2n1 [MMV006901] | 85
Cc1ccc(S(=O)(=O)n2cc(-c3ccnc(N)c3)c3cc(Br)cnc32)cc1 [MMV024114] | 92
CS(=O)(=O)c1ccc(C(=O)N(CC2CCCO2)c2nc3ccccc3s2)cc1[N+](=O)[O-] (stereo not shown) [MMV688761] | 88
COC(=O)c1c(NC(=O)c2c(F)c(F)c(F)c(F)c2F)sc2c1CCCCC2 [MMV461553] | 88
O=C(Nc1ccc(F)c(-c2nc3ncc(-c4ccccc4)cc3[nH]2)c1)N1CCCC1 [MMV688372] | 87
NC(N)=Nc1ccc(-c2ccc(-c3ccc(N=C(N)N)cc3Cl)o2)c(Cl)c1 [MMV688179] | 86
N=C(N)c1ccc(OCCCCCOc2ccc(C(=N)N)cc2)cc1 [MMV000062, reference compound] | 89
CC1(O)CC(c2nc(-c3ccc4ccc(-c5ccccc5)nc4c3)c3c(N)nccn23)C1 (stereo not shown) [MMV676605] | 53
COc1cccc(-n2nnnc2S(C)(=O)=O)c1 [MMV272144] | 89
CN1CCN(S(=O)(=O)c2ccc(-c3ccc4c(Nc5ncc(Cl)cn5)ccnc4c3)cc2)CC1 [MMV688283] | 85
Cc1cnc(N2CCN[C@@H](Cc3ccccc3)C2)nc1Oc1ccc(-n2ccnc2)cc1 [MMV687765] | 82
O=C(c1ccco1)N(CCCn1ccnc1)c1nc2c(Cl)cccc2s1 [MMV688936] | 90
Cc1cc(C2=NOC(c3cc(Cl)c(F)c(Cl)c3)(C(F)(F)F)C2)ccc1C(=O)NCc1ccc2c(c1)C(C)(C)OB2O (stereo not shown) [MMV687776] | 52
Cc1ccc(-c2nc(CN(Cc3ccccn3)C(C)C)cs2)o1 [MMV1088520] | 89
CCc1c(C)nc(-n2nc(C)cc2NC(=O)c2ccccc2SC)[nH]c1=O [MMV676477] | 92
Nc1ccc2ncnc(Nc3ccc(OCc4cccc(F)c4)c(Cl)c3)c2c1 [MMV688273] | 79
CCOc1ccc(-c2nc(CNCCc3ccc(F)cc3)cs2)cc1 [MMV688938] | 85
CCOC(=O)c1c(NC(=O)c2c(F)c(F)c(F)c(F)c2F)sc(C(N)=O)c1C [MMV153413] | 86
CC(=O)OC[C@H]1O[C@@H]([S-])[C@H](OC(C)=O)[C@@H](OC(C)=O)[C@@H]1OC(C)=O.CC[PH+](CC)CC.[Au] [MMV688978, reference compound] | 90
Cc1ccc2oc(-c3cc(NC(=O)Cc4ccccc4)ccc3Cl)nc2c1 [MMV676509] | 80
CC(C)=CCC/C(C)=C\CNCCNC1C2CC3CC(C2)CC1C3 (stereo not shown) [MMV687273] | 89
Cc1ncc(-c2ccnc(Nc3ccc(S(C)(=O)=O)cc3)n2)n1C(C)C [MMV676604] | 66

SMILES | % of inhibition at 10 µM (against L. amazonensis promastigotes) [%]
COc1ccc2nccc(NC(=O)C3CCN(CCc4ccc(Cl)cc4)CC3)c2n1 [MMV688844] | 80
NCCN(C(=O)c1ccc(Cl)cc1Cl)c1ccc(OCc2ccc(Cl)cc2)cc1 [MMV688371] | 89
O=C(Nc1cccc(Cl)c1)c1cnc(N2CCN(c3ccncc3)CC2)c(Cl)c1 [MMV024406] | 92
COc1cccc(-c2nc3c(N4CCCC4)cccc3n2CC2CCCN2)n1 (stereo not shown) [MMV687703] | 85
CC(C)N=c1cc2n(-c3ccc(Cl)cc3)c3ccccc3nc-2cc1Nc1ccc(Cl)cc1 [MMV687800, reference compound] | 88
CC(C)n1nc(-c2cc3c(Cl)cccc3[nH]2)c2c(N)ncnc21 [MMV688417] | 87
COc1nc2ccc(Br)cc2cc1[C@@H](c1ccccc1)[C@@](O)(CCN(C)C)c1cccc2ccccc12 [MMV689758, reference compound] | 90
Cc1[nH]c2cc(F)cc(F)c2c(=O)c1-c1ccc(Oc2ccc(OC(F)(F)F)cc2)cc1 [MMV671636] | 66
CO/N=C(/C(=O)OC)c1ccccc1CO/N=C(/C)c1cccc(C(F)(F)F)c1 [MMV688754] | 76
Brc1cncc(-c2cc(NCCCn3ccnc3)nc(-c3ccccc3)n2)c1 [MMV661713] | 84
O[C@@H](c1cc(C(F)(F)F)nc2c(C(F)(F)F)cccc12)[C@H]1CCCCN1 [MMV000016, reference compound] | 86
Cc1ccc(NC(=O)c2nc[nH]c2C(=O)Nc2nc3ccccc3[nH]2)c(C)c1 [MMV011903] | 86
N#Cc1nc(-c2ccccc2)oc1S(=O)(=O)c1ccc(Cl)cc1 [MMV676412] | 93
Cc1cc(NCCc2ccccc2)nc(NC(=N)Nc2ccc(Cl)cc2)n1 [MMV021660] | 87
CC(c1cc(Cl)cc(Cl)c1)N(C)c1ncc2c(N)nc(N)nc2n1 (stereo not shown) [MMV689437] | 89
Cc1nc(-c2ccccn2)nc(N2CCC(Cc3ccccc3)C2)c1Cl (stereo not shown) [MMV659004] | 87
CCCCOC(=O)Nc1cc2[nH]c(C3CCCCC3)nc2cc1N1CCCC1 [MMV687730] | 87
C[C@]1(COc2ccc(N3CCC(Oc4ccc(OC(F)(F)F)cc4)CC3)cc2)Cn2cc([N+](=O)[O-])nc2O1 [MMV688262] | 86
CNc1nnc(Sc2cnn(-c3ccccc3)c(=O)c2Cl)s1 [MMV688763] | 86
c1coc(CNc2nc(N3CCCCC3)nc3ccccc23)c1 [MMV676401] | 84
O=C(Nc1ccc(C(F)(F)F)c(C(F)(F)F)c1)c1cc(Cl)ccc1O [MMV687807] | 90
COc1ccc(Oc2ccc([C@@H](C)N(C)c3ncc4c(N)nc(N)nc4n3)cc2)cc1 [MMV690102] | 89
Cc1[nH]c2ccccc2c1C(c1cccs1)N1CCN(C)CC1 (stereo not shown) [MMV688768] | 86
